≈ marks a conversion by molar mass, not a printed value. Entries after “also recorded” stand apart in the source; their conditions may differ. Starred links: 1 amine or outer side, 2 acyl side, 3 side chain; linkers in the order of their positions; H or OH if unused. Non-standard residues stand in square brackets, D forms with d. Residues, ends and D or L forms follow the SMILES beside them. No end group written: not given here. ξ: configuration not given here. *: point of attachment. K(Pam) = CCCCCCCCCCCCCCCC(=O)NCCCC[C@H](N[*:1])C(=O)[*:2]; X1 = CCCCCCCCCCCCCCCC(=O)OCC(C*)OC(=O)CCCCCCCCCCCCCCC; Palmitoyl = CCCCCCCCCCCCCCCC(=O)*; AEEA = NCCOCCOCC(=O)O; ξC = NC(CS)C(=O)O
How the values were obtained:
[1] = Cellular toxicity, lactate dehydrogenase (LDH) assay; format: cell-based
Description: (§1) Methods: Cellular toxicity was determined by Lactate dehydrogenase concentration and WST-1 cell proliferation assay as well as hemolysis assay.

[2] = Cellular toxicity, WST-1 cell proliferation assay; format: cell-based
Description: as §1

[3] = system: red blood cell; assay: Hemolysis assay; format: cell-based
Description: as §1

[4] = system: bacteria from the ESKAPE panel; format: cell-based
Description: Methods: Broth microdilution assay. Log-phase bacteria were collected by centrifugation (2500 rpm, 10 min, 4° C.), washed twice with 10 mM sodium phosphate buffer containing 1% (w/v) TSB and the optical density at 600 nm was adjusted to 0.1. Approximately 5×10^5 CFU/ml bacteria were incubated with serial peptide concentrations (1.17-150 μM) in a final volume of 100 μl in 10 mM sodium phosphate buffer containing 1% (w/v) TSB for 2 hours at 37° C. After incubation, 100 μl of 6% TSB (w/v) was added and absorbance was measured at 600 nm (Tecan, Switzerland) and monitored for 18 hours. Afterwards, 100 μl per well was plated on LB agar to determine the number of viable bacteria microbiologically. Bactericidal activity was expressed as the LC99.9, the lowest concentration that killed ≥99.9% of bacteria.

[5] = Acute tolerability after oral administration; format: in vivo, C57BL/6N mice
Source text: Methods: C57BL/6N mice were generated and maintained (including breeding and housing) at the animal facilities of the Helmholtz Centre for Infection Research (HZI) under enhanced specific pathogen-free (SPF) conditions (Stehr et al., 2009). Animals used in the experiments were gender and age matched. Female and male mice with an age of 8-12 weeks were used. Sterilized food and water ad libitum were provided. Mice were kept under a strict 12-hour light cycle (lights on at 7:00 am and off at […]) and housed in groups of two to six mice per cage. All mice were euthanized by asphyxiation with CO2 and cervical dislocation. All animal experiments were performed in agreement with the local government of Lower Saxony, Germany (approved permission No. 33.19-42502-04-18/2499).
Age- and gender-matched mice received two doses of peptides (0, 125 μg or 250 μg) solved in 100 μl PBS orally per day. Bodyweight and appearance were recorded. The following day, mice were sacrificed and stomach, kidney, spleen, liver, small intestine, cecum and colon were removed for histological scoring. Around 1 ml of blood was taken from the heart to measure inflammatory markers including creatinine in the kidney and the enzyme levels of glutamate-oxalacetate-transaminase (GOT) in the liver.

[6] = system: several pathogenic bacteria; assay: Radial diffusion assay and MIC screening for antimicrobial activity; format: cell-based; conditions: radial diffusion assay and MIC determinations
Description: (§2) Methods: Log-phase bacteria were cultivated for up to 18 hours in TSB (TSB, Becton Dickinson, USA), washed and diluted to 4×10^6 CFU in 10 ml agar. Bacteria were incubated in 10 ml of 10 mM sodium phosphate, pH 7.4, containing 0.3 mg/ml of TSB powder and 1% (w/v) low EEO-agarose (AppliChem). Lipopeptides were pipetted into punched wells and diffused into the gel for 3 hours at 37° C. After that, a nutrient-rich gel with 6% TSB (w/v) and 1% agarose in 10 mM sodium phosphate buffer was poured on top of the first gel and incubated for up to 24 hours at 37° C. Then the diameter of inhibition zones was measured.
(§3) Clinical isolates of A. baumannii DSM30007, E. faecium DSM2918, K. pneumoniae DSM30104 and P. aeruginosa DSM1117 were provided by the Department for Laboratory Medicine at Robert-Bosch-Hospital Stuttgart, Germany. C. rodentium DSM16636 and E. coli DSM8695 were obtained from the Deutsche Sammlung von Mikroorganismen and Zellkultur GmbH Braunschweig, Germany. […]

[7] = system: ypuA promoter; assay: ypuA promoter luciferase reporter gene assay; format: cell-based, Bacillus subitilis 1S34
Description: A specific bacterial reporter strain with the genetic background of Bacillus subitilis 1S34, carrying the promoter of the ypuA gene, fused to the firefly luciferase reporter gene, was used to identify cell envelope-related damage caused by treatment with antimicrobial compounds. Bacteria were cultured to an OD600 of 0.9 in LB broth with 5 μg/ml erythromycin at 37° C. and diluted to an OD600 of 0.02. Serial peptide dilutions (0.15-150 μM) were prepared in a microtiter plate and incubated with the adjusted bacterial suspension at 37° C. for 1 hour. Subsequently, citrate buffer (0.1 M, pH 5) containing 2 mM luciferin (Iris Biotech, Germany) was added and luminescence was measured using a microplate reader (Tecan, Switzerland).

[8] = system: S. aureus NCTC8325; assay: Membrane potential assay with DiOC2(3); format: cell-based; conditions: 30 min treatment
Description: S. aureus NCTC8325 was grown to log-phase in LB+0.1% glucose, harvested and the optical density at 600 nm (OD600) was adjusted to 0.5. Bacteria were incubated with 30 μM 3,3′-diethyloxacarbocyanine iodide (DiOC2(3), Invitrogen™) for 15 min in the dark and treated with serial peptide concentrations for 30 min. The protonophore carbonyl cyanide m-chlorophenyl hydrazone (CCCP, Sigma Aldrich) was used as a positive control and DMSO or 0.01% acetic acid as negative control. Fluorescence was measured at an excitation wavelength of 485 nm and two emission wavelengths, 530 nm (green) and 630 (nm) red, using a microplate reader (Tecan, Switzerland).

[9] = system: C. tropicalis; assay: Broth microdilution assay, antifungal activity; format: cell-based
Description: (§4) Methods: Broth microdilution assay. Candida was cultured in TSB over night at 37° C., centrifuged (1500 rpm, 10 min, RT) and washed twice with 10 mM sodium phosphate buffer containing 1% (w/v) TSB. Candida cells were counted and approximately 5×10^5 CFU/ml fungi were incubated with serial peptide concentrations (1.17-150 μM) in a final volume of 100 μl in 10 mM sodium phosphate buffer containing 1% (w/v) TSB for 2 hours at 37° C. After incubation, 100 μl of 6% TSB (w/v) was added and absorbance was measured at 600 nm (Tecan, Switzerland) and monitored for 18 hours. Afterwards, 100 μl per well was plated on YPD agar to determine the number of viable bacteria microbiologically.

[10] = system: C. albicans; assay: Broth microdilution assay, antifungal activity; format: cell-based
Description: as §4

[11] = system: S. Typhimurium; assay: Radial diffusion assay; format: cell-based
Description: as §2, §3

| Compound | LDH activity (cytotoxicity) [1] | metabolic activity (WST-1 assay) [2] | red blood cell disruption (hemolysis) [3] | further results |
| --- | --- | --- | --- | --- |
| CCCCCCCCCCCCCCCC(=O)N[C@@H](CCCNC(=N)N)C(=O)NCC(=O)N[C@@H](CCCCN)C(=O)N[C@@H](C)C(=O)N[C@@H](CCCCN)C(=O)N[C@@H](CS)C(=O)N[C@@H](CS)C(=O)N[C@@H](CCCCN)C(=O)O [Pam-2] (Palmitoyl-RGKAKCCK-OH) | some LDH activity | modest decrease | minimal red blood cell disruption |  |
| CCCCCCCCCCCCCCCC(=O)NCCOCCOCC(=O)N[C@@H](CCCNC(=N)N)C(=O)NCC(=O)N[C@@H](CCCCN)C(=O)N[C@@H](C)C(=O)N[C@@H](CCCCN)C(=O)N[C@@H](CS)C(=O)N[C@@H](CS)C(=O)N[C@@H](CCCCN)C(=O)O [Pam-3] ({Palmitoyl-AEEA}-RGKAKCCK-OH) | little LDH activity | slight decrease | modest red blood cell disruption | MIC [4]: 9.38 µM (≈ 12 µg/mL); histological examination of gastrointestinal, liver and kidney tissues ([5]; mouse, in vivo, po): no alterations; serum level of creatinine ([5]; mouse, in vivo, po): no significant differences between the groups; serum level of glutamic oxaloacetic transaminase (GOT) ([5]; mouse, in vivo, po): no significant differences between the groups; acute toxicity (histological analysis and serum markers) ([5]; oral, mice, 24 hours after application, 125 or 250 μg doses): did not reveal any acute toxicity; also recorded: No danger signals |
| CCCCCCCCCCCCCCCC(=O)NC(CSCC(COC(=O)CCCCCCCCCCCCCCC)OC(=O)CCCCCCCCCCCCCCC)C(=O)N[C@@H](CCCNC(=N)N)C(=O)NCC(=O)N[C@@H](CCCCN)C(=O)N[C@@H](C)C(=O)N[C@@H](CCCCN)C(=O)N[C@@H](CS)C(=O)N[C@@H](CS)C(=O)N[C@@H](CCCCN)C(=O)O (stereo partly drawn) [Pam-4] (Palmitoyl-[ξC](X1)RGKAKCCK-OH) | no LDH activity | normal metabolic activity | minimal red blood cell disruption |  |
| Pam-Lys(Pam)-RGKAKCCK ({Palmitoyl-K(Pam)}-RGKAKCCK; cysteine pairing not given here) [Pam-5, octapeptide lipopeptide containing lysine as spacer] | no LDH activity | normal metabolic activity | minimal red blood cell disruption | bactericidal activity ([4]; broth microdilution, 1.17-150 μM peptide, 2 hours): moderate effects; antimicrobial activity, inhibition of bacterial growth of the tested strains [6]: generally inactive; cell envelope damage (ypuA reporter) [7]: little cell envelope damage; breakdown of the membrane potential [8]: most pronounced; antifungal activity against C. tropicalis [9]: good activity; also recorded: highly effective; antifungal activity against C. albicans [10]: modest activity; also recorded: some efficacy |
| RGKAKCCK (Cleavage product of defensin) [octapeptide, the C-terminal eight amino acids of human beta-defensin 1, non-modified] |  |  |  | inhibition of S. Typhimurium growth [11]: failed to inhibit |

From patent US20230365639A1, “DEFENSIN FRAGMENT DERIVED LIPOPEPTIDES FOR TREATMENT OF DRUG-RESISTANT MICROORGANISMS” (priority 2020, published 2023)
